Measured values: paper PMC3914206

Legend:
Type in all cases: binding
panel of 442 kinases [1] = biological target: T1, panel of 442 kinases (Homo sapiens, UniProt P10721, L576P); conditions: Compound Concentration 10 µM
T1 construct: purchased KINOMEscan
Source text: (§1) We assessed the selectivity of members of this scaffold using the KINOMEscan methodology across a near comprehensive panel of 442 kinases [[18,27]].

panel of 442 kinases [2] = biological target: T2, panel of 442 kinases (Homo sapiens, UniProt P29376); conditions: Compound Concentration 10 µM
T2 construct: purchased KINOMEscan
T2 sequence (P29376 17-864): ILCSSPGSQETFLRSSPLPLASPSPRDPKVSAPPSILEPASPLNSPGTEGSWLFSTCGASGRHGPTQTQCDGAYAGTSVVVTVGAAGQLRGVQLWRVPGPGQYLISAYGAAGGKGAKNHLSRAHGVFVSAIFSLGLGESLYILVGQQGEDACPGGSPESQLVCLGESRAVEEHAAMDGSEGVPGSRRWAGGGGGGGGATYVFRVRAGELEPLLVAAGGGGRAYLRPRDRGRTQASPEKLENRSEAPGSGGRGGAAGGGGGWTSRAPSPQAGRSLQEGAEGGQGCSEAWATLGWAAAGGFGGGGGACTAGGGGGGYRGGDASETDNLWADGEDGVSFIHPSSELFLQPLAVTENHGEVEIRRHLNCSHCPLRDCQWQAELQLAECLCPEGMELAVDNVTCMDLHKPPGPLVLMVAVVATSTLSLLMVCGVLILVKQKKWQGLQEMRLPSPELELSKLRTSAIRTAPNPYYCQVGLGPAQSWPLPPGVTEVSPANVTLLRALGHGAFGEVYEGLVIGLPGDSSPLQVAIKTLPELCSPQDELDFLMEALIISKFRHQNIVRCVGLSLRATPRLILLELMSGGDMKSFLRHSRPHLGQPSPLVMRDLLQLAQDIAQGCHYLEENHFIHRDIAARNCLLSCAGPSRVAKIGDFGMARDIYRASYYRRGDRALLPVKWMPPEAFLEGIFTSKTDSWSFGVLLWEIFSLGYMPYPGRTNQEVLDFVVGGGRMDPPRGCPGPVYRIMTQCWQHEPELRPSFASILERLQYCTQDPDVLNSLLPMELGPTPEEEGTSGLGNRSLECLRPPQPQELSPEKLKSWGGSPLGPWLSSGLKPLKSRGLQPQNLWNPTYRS
Source text: as §1

panel of 442 kinases [3] = biological target: T3, panel of 442 kinases (Homo sapiens, UniProt P43405); conditions: kinase SYK; compound concentration 10 µM
T3 construct: purchased KINOMEscan
Source text: as §1

panel of 442 kinases [4] = biological target: T4, panel of 442 kinases (Homo sapiens, UniProt Q15746); conditions: Compound Concentration 10 µM
T4 construct: purchased KINOMEscan
T4 sequence (Q15746 whole entry): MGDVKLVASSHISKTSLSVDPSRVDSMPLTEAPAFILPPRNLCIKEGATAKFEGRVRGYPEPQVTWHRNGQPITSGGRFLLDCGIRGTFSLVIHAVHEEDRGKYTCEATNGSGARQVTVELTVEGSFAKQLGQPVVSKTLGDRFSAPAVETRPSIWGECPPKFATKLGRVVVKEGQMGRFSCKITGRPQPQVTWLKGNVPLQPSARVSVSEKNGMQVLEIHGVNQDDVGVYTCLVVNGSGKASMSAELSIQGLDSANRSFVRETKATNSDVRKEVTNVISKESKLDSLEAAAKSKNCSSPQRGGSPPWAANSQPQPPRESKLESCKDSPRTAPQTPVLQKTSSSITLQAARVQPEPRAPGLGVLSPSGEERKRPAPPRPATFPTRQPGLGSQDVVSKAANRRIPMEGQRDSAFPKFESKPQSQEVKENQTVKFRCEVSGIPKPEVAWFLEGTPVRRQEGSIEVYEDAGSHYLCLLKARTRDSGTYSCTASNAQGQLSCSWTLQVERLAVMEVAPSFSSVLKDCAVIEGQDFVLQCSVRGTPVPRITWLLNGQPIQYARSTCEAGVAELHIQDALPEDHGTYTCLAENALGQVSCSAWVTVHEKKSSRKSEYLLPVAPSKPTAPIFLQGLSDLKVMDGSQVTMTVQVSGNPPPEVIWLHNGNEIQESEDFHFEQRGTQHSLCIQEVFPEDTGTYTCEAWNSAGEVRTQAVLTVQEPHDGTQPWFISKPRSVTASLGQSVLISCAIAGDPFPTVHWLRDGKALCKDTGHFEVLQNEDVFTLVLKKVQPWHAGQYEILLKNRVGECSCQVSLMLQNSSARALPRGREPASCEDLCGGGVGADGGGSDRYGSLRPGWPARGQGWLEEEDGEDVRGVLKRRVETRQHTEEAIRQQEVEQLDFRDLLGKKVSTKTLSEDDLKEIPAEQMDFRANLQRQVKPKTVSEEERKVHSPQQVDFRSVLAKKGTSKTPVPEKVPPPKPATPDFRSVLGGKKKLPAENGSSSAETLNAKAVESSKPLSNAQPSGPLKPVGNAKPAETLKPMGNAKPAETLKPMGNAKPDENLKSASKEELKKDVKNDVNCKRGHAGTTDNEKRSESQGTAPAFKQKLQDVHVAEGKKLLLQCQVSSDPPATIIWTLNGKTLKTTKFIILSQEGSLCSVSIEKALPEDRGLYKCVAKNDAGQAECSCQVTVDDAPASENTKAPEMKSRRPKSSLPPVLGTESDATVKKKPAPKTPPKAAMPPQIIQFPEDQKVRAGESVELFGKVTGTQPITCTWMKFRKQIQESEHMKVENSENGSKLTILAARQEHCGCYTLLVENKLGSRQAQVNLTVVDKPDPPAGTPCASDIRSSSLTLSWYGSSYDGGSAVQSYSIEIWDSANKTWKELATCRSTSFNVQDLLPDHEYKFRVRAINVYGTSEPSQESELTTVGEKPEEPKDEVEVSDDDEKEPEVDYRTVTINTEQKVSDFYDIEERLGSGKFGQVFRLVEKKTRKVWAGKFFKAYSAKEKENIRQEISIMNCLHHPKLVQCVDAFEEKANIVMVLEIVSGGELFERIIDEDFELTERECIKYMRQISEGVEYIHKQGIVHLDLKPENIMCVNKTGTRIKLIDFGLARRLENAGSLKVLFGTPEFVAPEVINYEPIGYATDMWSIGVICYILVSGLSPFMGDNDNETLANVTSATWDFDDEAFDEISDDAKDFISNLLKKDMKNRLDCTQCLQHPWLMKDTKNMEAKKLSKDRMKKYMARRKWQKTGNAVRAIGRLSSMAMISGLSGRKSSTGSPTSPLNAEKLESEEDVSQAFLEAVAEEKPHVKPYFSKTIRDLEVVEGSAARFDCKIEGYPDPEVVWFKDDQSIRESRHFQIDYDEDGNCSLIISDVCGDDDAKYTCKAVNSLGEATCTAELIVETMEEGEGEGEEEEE
Source text: as §1

T1 sequence (P10721 26-976 L576P): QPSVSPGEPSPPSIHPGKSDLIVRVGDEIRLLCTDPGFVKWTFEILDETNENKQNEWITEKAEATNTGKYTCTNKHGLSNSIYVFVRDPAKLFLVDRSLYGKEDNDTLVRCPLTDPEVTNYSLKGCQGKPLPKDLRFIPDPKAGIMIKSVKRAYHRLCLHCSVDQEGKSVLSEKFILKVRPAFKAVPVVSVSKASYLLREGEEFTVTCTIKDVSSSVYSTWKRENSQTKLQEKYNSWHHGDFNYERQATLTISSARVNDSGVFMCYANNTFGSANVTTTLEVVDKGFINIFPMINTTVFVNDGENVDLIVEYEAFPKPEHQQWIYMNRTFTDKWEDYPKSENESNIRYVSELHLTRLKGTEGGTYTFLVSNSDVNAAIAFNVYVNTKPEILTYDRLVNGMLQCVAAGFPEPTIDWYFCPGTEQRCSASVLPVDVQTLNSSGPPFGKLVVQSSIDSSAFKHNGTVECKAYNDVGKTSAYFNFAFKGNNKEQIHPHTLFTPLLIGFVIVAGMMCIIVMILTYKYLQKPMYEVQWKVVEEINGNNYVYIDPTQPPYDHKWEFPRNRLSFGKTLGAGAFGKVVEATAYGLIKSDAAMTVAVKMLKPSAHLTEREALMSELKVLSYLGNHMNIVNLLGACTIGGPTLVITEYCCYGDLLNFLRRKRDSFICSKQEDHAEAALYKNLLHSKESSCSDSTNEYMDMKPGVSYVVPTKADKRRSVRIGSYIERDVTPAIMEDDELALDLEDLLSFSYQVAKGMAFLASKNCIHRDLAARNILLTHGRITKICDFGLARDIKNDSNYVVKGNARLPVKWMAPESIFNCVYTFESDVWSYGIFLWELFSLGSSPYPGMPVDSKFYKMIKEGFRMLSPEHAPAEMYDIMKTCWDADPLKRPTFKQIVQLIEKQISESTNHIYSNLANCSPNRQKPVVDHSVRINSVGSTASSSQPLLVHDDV

SMILES | KINOMEscan: KIT(L576P) (panel of 442 kinases [1]) | KINOMEscan: LTK (panel of 442 kinases [2]) | % Ctrl, SYK (panel of 442 kinases [3]) | KINOMEscan: MYLK (panel of 442 kinases [4])
COc1cc(C(=O)N2CCC(N3CCN(C)CC3)CC2)ccc1Nc1ncc2c(n1)N(C)c1ccccc1C(=O)N2C [15 (LRRK2-IN-1)] | 100 | 32 | 100 % Ctrl | 8.7
COc1cc(C(=O)N2CCC(N3CCN(C)CC3)CC2)ccc1Nc1ncc2c(n1)N1CCc3cccc(c31)C(=O)N2C [Compound 24] |  |  | 88 % Ctrl | 2.9
COc1cc(C(=O)N2CCC(N3CCN(C)CC3)CC2)ccc1Nc1ncc2c(n1)N(C1CCCC1)c1ccccc1C(=O)N2C [Compound 25, 11-cyclopentyl-2-((2-methoxy-4-(4-(4-methylpiperazin-1-yl)piperidine-1-carbonyl)phenyl)amino)-5-methyl-5H-benzo[e]pyrimido[5,4-b][1,4]diazepin-6(11H)-one] | 93 | 11 | 100 % Ctrl | 73
CCOc1cc(C(=O)N2CCC(N3CCN(C)CC3)CC2)ccc1Nc1ncc2c(n1)N(C1CCCC1)c1ccccc1C(=O)N2C [Compound 26] | 100 | 48 | 100 % Ctrl | 98
